Patent publication US8466166B2, “Benzimidazole derivatives as selective acid pump inhibitors” (Raqualia Pharma Inc., priority 2006, dated 2013)

Target: T1, porcine gastric H+/K+-ATPase (Sus scrofa, UniProt P19156)
T1 construct: The gastric vesicles were collected from interface on 0.25 M sucrose layer containing 7% Ficoll; from tissue; host or cells: mucous membrane of fresh porcine stomachs (gastric vesicles)
Test: Ion-leaky porcine gastric H+/K+-ATPase inhibition
Format: biochemical
Conditions: ion-leaky lyophilized porcine gastric vesicles, 5 mM KCl, pH 6.4, 37° C., 30 minutes; read-out: IC50 values of the inhibitory activity
Description: The porcine gastric vesicles for Porcine gastric H^+/K^+-ATPase inhibition assays were prepared from mucous membrane in fresh porcine stomachs by homogenization with a tight-fitted polytetrafluoroethylene (Teflone®) homogenizer in 0.25 M sucrose at 4° C. The crude pellet was removed with centrifugation at 20,000 g for 30 min. Then supernatant was centrifuged at 100,000 g for 30 min. The resulting pellet was re-suspended in 0.25 M sucrose, and then subjected to density gradient centrifugation at 132,000 g for 90 min. The gastric vesicles were collected from interface on 0.25 M sucrose layer containing 7% Ficoll™ PM400 (Amersham Biosciences). This procedure was performed in a cold room.
Ion-leaky porcine gastric H^+/K^+-ATPase inhibition was measured according to the modified method described in Biochemical Pharmacology, 1988, 37, 2231-2236.
The isolated vesicles were lyophilized, and then kept in deep-freezer until use. For enzyme assay, lyophilized vesicles were reconstituted with 3 mM MgSO4 containing 40 mM Bis-tris (pH 6.4 at 37° C.).
Enzyme reaction was performed incubating 5 mM KCl, 3 mM Na2ATP, 3 mM MgSO4 and 1.0 μg of reconstituted vesicles for 30 minutes at 37° C. in a final 60 μl of reaction mixture (40 mM Bis-tris, pH 6.4) with or without the test compound. Enzyme reaction was stopped by adding 10% sodium dodecyl sulphate (SDS). Released inorganic phosphate from ATP was detected by incubation with mixture of 1 part of 35 mM ammonium molybdate tetrahydrate in 15 mM Zinc acetate hydrate and 4 parts of 10% ascorbic acid (pH 5.0), resulting in phosphomolybdate, which has optical density at 750 nm.

T1 sequence (P19156 2-1034 limits assumed): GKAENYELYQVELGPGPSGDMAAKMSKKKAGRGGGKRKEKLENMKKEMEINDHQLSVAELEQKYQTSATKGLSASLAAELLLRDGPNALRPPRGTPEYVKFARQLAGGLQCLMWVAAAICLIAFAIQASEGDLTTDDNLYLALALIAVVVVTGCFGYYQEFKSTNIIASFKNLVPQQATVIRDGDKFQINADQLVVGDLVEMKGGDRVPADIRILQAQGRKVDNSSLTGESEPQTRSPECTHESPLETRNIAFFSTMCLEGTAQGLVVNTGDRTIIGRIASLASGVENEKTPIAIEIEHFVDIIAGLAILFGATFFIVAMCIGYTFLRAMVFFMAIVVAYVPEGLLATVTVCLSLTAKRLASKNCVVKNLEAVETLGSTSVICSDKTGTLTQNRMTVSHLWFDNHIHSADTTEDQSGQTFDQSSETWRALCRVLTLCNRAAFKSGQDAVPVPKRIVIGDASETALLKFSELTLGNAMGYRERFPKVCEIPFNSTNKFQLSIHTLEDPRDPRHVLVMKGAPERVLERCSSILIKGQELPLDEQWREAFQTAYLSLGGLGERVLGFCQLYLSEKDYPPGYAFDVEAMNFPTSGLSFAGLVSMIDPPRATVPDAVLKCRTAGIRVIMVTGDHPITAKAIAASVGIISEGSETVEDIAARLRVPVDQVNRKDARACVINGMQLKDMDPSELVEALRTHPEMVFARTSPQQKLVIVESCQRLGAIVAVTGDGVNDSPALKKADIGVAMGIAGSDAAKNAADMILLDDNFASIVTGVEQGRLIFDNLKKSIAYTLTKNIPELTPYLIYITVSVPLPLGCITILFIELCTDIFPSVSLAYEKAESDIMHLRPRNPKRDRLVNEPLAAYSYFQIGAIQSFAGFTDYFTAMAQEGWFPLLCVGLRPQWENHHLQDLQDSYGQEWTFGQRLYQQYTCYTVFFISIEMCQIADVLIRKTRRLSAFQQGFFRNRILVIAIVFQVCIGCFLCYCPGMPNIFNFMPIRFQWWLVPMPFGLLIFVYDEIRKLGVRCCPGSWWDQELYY
T1 sequence (P18434 whole entry partner): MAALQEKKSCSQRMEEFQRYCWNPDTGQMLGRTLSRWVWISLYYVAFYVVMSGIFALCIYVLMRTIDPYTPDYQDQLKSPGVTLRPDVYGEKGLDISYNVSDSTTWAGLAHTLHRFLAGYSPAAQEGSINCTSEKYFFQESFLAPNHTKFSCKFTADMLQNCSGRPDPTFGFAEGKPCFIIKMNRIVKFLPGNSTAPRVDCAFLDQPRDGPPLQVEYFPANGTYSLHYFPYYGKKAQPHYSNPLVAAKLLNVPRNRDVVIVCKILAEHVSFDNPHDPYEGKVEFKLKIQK

Compound	IC50 [nM]
COCCn1c(C)nc2cc(C(=O)N3CCC3)c3c(c21)OC(c1ccccc1)CC3 (single isomer, unassigned; (-)) [Example 16, (−)-5-(Azetidin-1-ylcarbonyl)-1-(2-methoxyethyl)-2-methyl-8-phenyl-1,6,7,8-tetrahydrochromeno[7,8-d]imidazole]	74
COCCn1c(C)nc2cc(C(=O)N(C)CCO)c3c(c21)OC(c1ccc(F)cc1F)CC3 (single isomer, unassigned; (-)) [Example 12, (−)-8-(2,4-Difluorophenyl)-N-(2-hydroxyethyl)-1-(2-methoxyethyl)-N,2-dimethyl-1,6,7,8-tetrahydrochromeno[7,8-d]imidazole-5-carboxamide]	90
COCCn1c(C)nc2cc(C(=O)N(C)CCO)c3c(c21)OC(c1ccc(F)cc1F)CC3 (racemic) [Example 11, 8-(2,4-Difluorophenyl)-N-(2-hydroxyethyl)-1-(2-methoxyethyl)-N,2-dimethyl-1,6,7,8-tetrahydrochromeno[7,8-d]imidazole-5-carboxamide]	210
COCCn1c(C)nc2cc(C(=O)N(C)CCO)c3c(c21)OC(c1ccccc1)CC3 (centres unmarked) [Example 4, N-(2-Hydroxyethyl)-1-(2-methoxyethyl)-N,2-dimethyl-8-phenyl-1,6,7,8-tetrahydrochromeno[7,8-d]imidazole-5-carboxamide]	190
COCCn1c(C)nc2cc(C(=O)N(C)CCO)c3c(c21)OC(c1ccc(F)cc1F)CC3 (single isomer, unassigned; (+)) [Example 13, (+)-8-(2,4-Difluorophenyl)-N-(2-hydroxyethyl)-1-(2-methoxyethyl)-N,2-dimethyl-1,6,7,8-tetrahydrochromeno[7,8-d]imidazole-5-carboxamide]	340
Cc1nc2cc(C(=O)N(C)C)c3c(c2n1CCCO)OC(c1ccc(F)cc1)CC3 (centres unmarked) [Example 8, 8-(4-Fluorophenyl)-1-(3-hydroxypropyl)-N,N,2-trimethyl-1,6,7,8-tetrahydrochromeno[7,8-d]imidazole-5-carboxamide]	340
COCCn1c(C)nc2cc(C(=O)N(C)C)c3c(c21)OC(c1ccc(F)cc1)CC3 (single isomer, unassigned; (+)) [Example 6, (+)-8-(4-Fluorophenyl)-1-(2-methoxyethyl)-N,N,2-trimethyl-1,6,7,8-tetrahydrochromeno[7,8-d]imidazole-5-carboxamide]	230
COCCn1c(C)nc2cc(C(=O)N3CCC3)c3c(c21)OC(c1ccccc1)CC3 (single isomer, unassigned; (+)) [Example 17, (+)-5-(Azetidin-1-ylcarbonyl)-1-(2-methoxyethyl)-2-methyl-8-phenyl-1,6,7,8-tetrahydrochromeno[7,8-d]imidazole]	1000
COCCn1c(C)nc2cc(C(=O)N3CCC3)c3c(c21)OC(c1ccccc1)CC3 (racemic) [Example 15, 5-(Azetidin-1-ylcarbonyl)-1-(2-methoxyethyl)-2-methyl-8-phenyl-1,6,7,8-tetrahydrochromeno[7,8-d]imidazole]	200
COCCn1c(C)nc2cc(C(=O)N(C)C)c3c(c21)OC(c1ccccc1)CC3 (racemic) [Example 1, 1-(2-Methoxyethyl)-N,N,2-trimethyl-8-phenyl-1,6,7,8-tetrahydrochromeno[7,8-d]imidazole-5-carboxamide]	98
[2H]C([2H])([2H])N(C(=O)c1cc2nc(C)n(CCOC)c2c2c1CCC(c1ccccc1)O2)C([2H])([2H])[2H] (centres unmarked) [Example 10, N,N-Di[^2H3]methyl-1-(2-methoxyethyl)-2-methyl-8-phenyl-1,6,7,8-tetrahydrochromeno[7,8-d]imidazole-5-carboxamide]	100
Cc1nc2cc(C(=O)N(C)C)c3c(c2n1Cc1ccon1)OC(c1ccc(F)cc1)CC3 (centres unmarked) [Example 9, 8-(4-Fluorophenyl)-1-(isoxazol-3-ylmethyl)-N,N,2-trimethyl-1,6,7,8-tetrahydrochromeno[7,8-d]imidazole-5-carboxamide]	350
COCCn1c(C)nc2cc(C(=O)N(C)C)c3c(c21)OC(c1ccc(F)cc1)CC3 (racemic) [Example 5, 8-(4-Fluorophenyl)-1-(2-methoxyethyl)-N,N,2-trimethyl-1,6,7,8-tetrahydrochromeno[7,8-d]imidazole-5-carboxamide]	88
COCCn1c(C)nc2cc(C(=O)N3CC(F)C3)c3c(c21)OC(c1ccccc1)CC3 (centres unmarked) [Example 14, 5-[(3-Fluoroazetidin-1-yl)carbonyl]-1-(2-methoxyethyl)-2-methyl-8-phenyl-1,6,7,8-tetrahydrochromeno[7,8-d]imidazole]	270
COCCn1c(C)nc2cc(C(=O)N(C)C)c3c(c21)OC(c1ccccc1)CC3 (single isomer, unassigned; (+)) [Example 2, (+)-1-(2-Methoxyethyl)-N,N,2-trimethyl-8-phenyl-1,6,7,8-tetrahydrochromeno[7,8-d]imidazole-5-carboxamide]	520
COCCn1c(C)nc2cc(C(=O)N(C)C)c3c(c21)OC(c1ccc(F)cc1)CC3 (single isomer, unassigned; (-)) [Example 7, (−)-8-(4-Fluorophenyl)-1-(2-methoxyethyl)-N,N,2-trimethyl-1,6,7,8-tetrahydrochromeno[7,8-d]imidazole-5-carboxamide]	38
COCCn1c(C)nc2cc(C(=O)N(C)C)c3c(c21)OC(c1ccccc1)CC3 (single isomer, unassigned; (-)) [Example 3, (−)-1-(2-Methoxyethyl)-N,N,2-trimethyl-8-phenyl-1,6,7,8-tetrahydrochromeno[7,8-d]imidazole-5-carboxamide]	68
